The record followed here is patent publication US4161542A, “Heart active compounds” (priority 1975, dated 1979).

Molecules are shown by their SMILES. Like-named read-outs stand apart in the source and are kept apart here.

One assay concerns β-receptors. Description: β-blocking activity in reserpinized anesthetized cat (block of isoprenaline effect on heart rate and peripheral resistance; intrinsic activity). The class given is in vivo. To be noted: for Block of isopren. ED50 HR (heart rate blockade) / Block of isopren. ED50 PR (peripheral resistance blockade): cumulative doses, vs isoprenaline i.v.; for Block of isopren. ED50 PR (peripheral resistance blockade): peripheral vascular resistance; for Intrinsic activity (increase in heart rate relative to basal): after final dose giving 100% blockade of isoprenaline response. The method, then: Anesthetized cats (males and females weighing 2.5-3.5 kg) were pretreated with reserpine (5 mg/kg bodyweight administered intramuscularly) about 16 hours before the experiments. The animals were pretreated with reserpine in order to eliminate the endogenous sympathetic control of heart rate and vascular smooth muscle tone. The cats were anesthetized with pentobarbital (30 mg/kg bodyweight administered i.p.) and artificially ventilated with room air. A bilateral vagotomy was performed in the neck. Blood pressure was obtained from a cannulated carotid artery and heart rate was registered from a cardiotachometer, triggered by the electrocardiogram (ECG). One […] artery was cannulated and perfused with the cat's own blood, delivered at a constant flow rate with a Watson Marlow roller pump. The perfusion pressure was recorded with a Statham pressure transducer. The blood flow rate was so adjusted that the initially recorded perfusion pressure was slightly above the systemic arterial mean blood pressure. In the studied hind limb the paw was excluded from the circulation by a tight ligature. An isoprenaline dose administered intravenously was established giving a submaximal heart rate (HR) increase and a submaximal decrease of peripheral vascular resistance (PR). The latter is shown as a drop of perfusion pressure.
To start the test, an initial dose of the test compound is injected into the animal. Ten minutes afterward the predetermined dose of isoprenaline is injected and the effect of the isoprenaline on the heart rate and peripheral resistance is noted. By comparing these observations with the normal response of the test animal to the predetermined dose of isoprenaline, the percent blockade of the HR and PR caused by the initial dose of test compound is calculated. The experiment is repeated with logrithmically increasing doses of the test compound (on a cumulative basis), alternating with the predetermined dose of isoprenaline every 10 minutes.
After the final dose of the test compound is administered--which is sufficient to cause a 100% blockade of the isoprenaline response--the intrinsic activity of the test compound is noted as the increase in heart rate relative to the basal heart rate of the test animal before the experiment began.

In another assay the target is T1, α-receptor (Rattus norvegicus, UniProt P43140).
T1 construct: from tissue; host or cells: isolated rat vas deferens
T1 sequence (P43140 1-466): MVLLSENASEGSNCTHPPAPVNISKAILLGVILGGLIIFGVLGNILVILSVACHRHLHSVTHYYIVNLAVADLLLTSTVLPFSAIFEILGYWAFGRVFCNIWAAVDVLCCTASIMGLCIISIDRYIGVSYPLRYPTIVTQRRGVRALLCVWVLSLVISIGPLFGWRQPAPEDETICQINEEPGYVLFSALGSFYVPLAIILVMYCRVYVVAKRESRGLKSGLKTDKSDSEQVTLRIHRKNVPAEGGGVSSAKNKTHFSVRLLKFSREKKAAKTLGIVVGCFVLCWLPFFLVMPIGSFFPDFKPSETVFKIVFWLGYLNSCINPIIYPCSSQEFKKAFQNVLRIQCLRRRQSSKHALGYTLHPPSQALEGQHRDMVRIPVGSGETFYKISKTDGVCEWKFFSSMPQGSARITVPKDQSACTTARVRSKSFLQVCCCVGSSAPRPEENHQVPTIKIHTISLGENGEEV
Description: α-blocking activity in isolated rat vas deferens (antagonism of noradrenaline contraction). The method, then: α-blocking activity was tested in isolated rat vas deferens. Rats were decapitated and the vas deferens was immediately dissected out and mounted in an oxygenated Krebs Ringer solution at 37° C. Noradrenaline administered to the bath caused α-receptor mediated contraction of vas deferens, which was recorded with an isometric tension transducer. Dose response curves to noradrenaline were constructed before and after three increasing doses of the test compound. By using Schildt plots pA2 values for α-receptor blockade were obtained. By definition pA2 =-log concentration of an antagonist (in this case, the test compound) which requires that the concentration of the related agonist (in this case noradrenaline) be doubled in the presence of the antagonist in order to produce the same effect as the agonist caused in the absence of the antagonist.

Where [1] appears, read: isolated rat vas deferens, Krebs Ringer, 37° C., noradrenaline agonist, Schildt plot, read-out: pA2 (α-receptor blockade) (converted).

For `C=CCc1ccccc1OCC(O)C(CC)NC(C)Cc1ccc(O)cc1` (stereo not shown) [Ex. 12, 3-ethyl-3-[2-(4-hydroxyphenyl)-1-methylethylamino]-1-o-allylphenoxy-propanol-2], in the assay on β-receptors, the “Block of isopren. ED50 HR (heart rate blockade)” value (from here on “Block of isopren. ED50 HR”) was found to be 5.1 mg/kg and the “Block of isopren. ED50 PR (peripheral resistance blockade)” value (“Block of isopren. ED50 PR” below) worked out at 3.3 mg/kg. For the same compound, the Kb on α-receptor (setting [1]) was 251 nM.

In the case of `COc1ccccc1OCC(O)CNC(C)Cc1ccc(O)cc1` (stereo not shown) [Ex. 10, 3-[2-(4-hydroxyphenyl)-1-methylethylamino]-1-o-methoxyphenoxy-propanol-2], in the assay with β-receptors, the “Intrinsic activity (increase in heart rate relative to basal)” value is on record as “+40 beats/min”, the “Block of isopren. ED50 HR” value was found to be 0.04 mg/kg and the “Block of isopren. ED50 PR” value was found to be 0.5 mg/kg. In addition, the Kb at α-receptor (setting [1]) is 398 nM.

Turning to `Cc1ccccc1OCC(O)CNC(C)(C)Cc1ccc(O)cc1` (stereo not shown) [Ex. 5, 3-[2-(4-hydroxyphenyl)-1,1-dimethylethylamino]-1-o-methylphenoxy-propanol-2], in the assay with β-receptors, the “Intrinsic activity (increase in heart rate relative to basal)” value is given as “+62 beats/min”, the “Block of isopren. ED50 HR” value was 0.06 mg/kg and the “Block of isopren. ED50 PR” value is listed as 0.3 mg/kg. Moreover, on α-receptor (setting [1]), the Kb is 1580 nM.

For the compound `C=CCc1ccccc1OCC(O)CNC(C)(C)Cc1ccc(O)cc1` (stereo not shown) [Ex. 7, 3-[2-(4-hydroxyphenyl)-1,1-dimethylethylamino]-1-o-allylphenoxy-propanol-2], in the assay on β-receptors, the “Intrinsic activity (increase in heart rate relative to basal)” value is recorded as “+39 beats/min”, the “Block of isopren. ED50 HR” value worked out at 0.09 mg/kg and the “Block of isopren. ED50 PR” value is listed as 0.06 mg/kg. For the same compound, the Kb on α-receptor (setting [1]) was 398 nM.

`CCc1ccccc1OCC(O)CNC(C)Cc1ccc(O)cc1` (stereo not shown) [Ex. 2, 3-[2-(4-hydroxyphenyl)-1-methylethylamino]-1-o-ethylphenoxy-propanol-2]: in the assay with β-receptors, the “Intrinsic activity (increase in heart rate relative to basal)” value is recorded as “+32 beats/min”, the “Block of isopren. ED50 HR” value turned out to be 0.11 mg/kg and the “Block of isopren. ED50 PR” value is given as 0.15 mg/kg. The compound further had a Kb at α-receptor of 63.1 nM.

For `C=CCc1ccccc1OCC(O)C(C)NC(C)(C)Cc1ccc(O)cc1` (stereo not shown) [Ex. 14, 3-methyl-3-[2-(4-hydroxyphenyl)-1,1-dimethylethylamino]-1-o-allylphenoxy-propanol-2], in the assay on β-receptors, the “Intrinsic activity (increase in heart rate relative to basal)” value is “+3 beats/min”, the “Block of isopren. ED50 HR” value is reported as 2.5 mg/kg and the “Block of isopren. ED50 PR” value came to 0.6 mg/kg. At α-receptor (setting [1]), the Kb is 39.8 nM.

With `COCCc1ccc(OCC(O)CNC(C)C)cc1` (stereo not shown) [Metoprolol, metoprolol, reference compound], in the assay on β-receptors, the “Intrinsic activity (increase in heart rate relative to basal)” value was 0 beats/min, the “Block of isopren. ED50 HR” value was determined as 0.2 mg/kg and the “Block of isopren. ED50 PR” value was 4.7 mg/kg.

Turning to `Cc1cccc(OCC(O)CNC(C)Cc2ccc(O)cc2)c1C` (stereo not shown) [Ex. 9, 3-[2-(4-hydroxyphenyl)-1-methylethylamino]-1-[2,3-dimethylphenoxy]-propanol-2], in the assay on β-receptors, the “Block of isopren. ED50 HR” value was 0.26 mg/kg and the “Block of isopren. ED50 PR” value stood at 0.59 mg/kg. Also, the Kb at α-receptor (setting [1]) is 794 nM.

Consider `CCc1ccccc1OCC(O)C(C)NC(C)Cc1ccc(O)cc1` (stereo not shown) [Ex. 11, 3-methyl-3-[2-(4-hydroxyphenyl)-1-methylethylamino]-1-o-ethylphenoxy-propanol-2], for which, in the assay with β-receptors, the “Intrinsic activity (increase in heart rate relative to basal)” value was “+18 beats/min”, the “Block of isopren. ED50 HR” value was determined as 0.3 mg/kg and the “Block of isopren. ED50 PR” value worked out at 0.5 mg/kg. The Kb on α-receptor (setting [1]) is 631 nM.

For `CCCc1ccccc1OCC(O)CNC(C)Cc1ccc(O)cc1` (stereo not shown) [Ex. 16, 3-[2-(4-hydroxyphenyl)-1-methylethylamino]-1-o-propylphenoxy-propanol-2], in the assay on β-receptors, the “Intrinsic activity (increase in heart rate relative to basal)” value is reported as “+35 beats/min”, the “Block of isopren. ED50 HR” value was 1.3 mg/kg and the “Block of isopren. ED50 PR” value was 0.8 mg/kg. Besides, the Kb on α-receptor (setting [1]) is 158 nM.

`Cc1ccccc1OCC(O)C(C)NC(C)(C)Cc1ccc(O)cc1` (stereo not shown) [Ex. 13, 3-methyl-3-[2-(4-hydroxyphenyl)-1,1-dimethylethylamino]-1-o-methylphenoxy-propanol-2]: in the assay with β-receptors, the “Intrinsic activity (increase in heart rate relative to basal)” value is recorded as “+9 beats/min”, the “Block of isopren. ED50 HR” value is 1.3 mg/kg and the “Block of isopren. ED50 PR” value came out at 8.5 mg/kg. Further, the Kb at α-receptor (setting [1]) was 631 nM.

In the case of `C=CCc1ccccc1OCC(O)CNC(C)Cc1ccc(O)cc1` (stereo not shown) [Ex. 3, 3-[2-(4-hydroxyphenyl)-1-methylethylamino]-1-o-allylphenoxy-propanol-2], in the assay with β-receptors, the “Intrinsic activity (increase in heart rate relative to basal)” value is reported as “+33 beats/min”, the “Block of isopren. ED50 HR” value was 0.7 mg/kg and the “Block of isopren. ED50 PR” value is given as 1.1 mg/kg. In addition, on α-receptor, the Kb was 63.1 nM.

In the case of `Cc1cccc(OCC(O)CNC(C)Cc2ccc(O)cc2)c1` (stereo not shown) [Ex. 15, 3-[2-(4-hydroxyphenyl)-1-methylethylamino]-1-m-methylphenoxy-propanol-2], in the assay with β-receptors, the “Intrinsic activity (increase in heart rate relative to basal)” value is given as “+16 beats/min”, the “Block of isopren. ED50 HR” value was found to be 0.3 mg/kg and the “Block of isopren. ED50 PR” value is given as 0.9 mg/kg. On α-receptor (setting [1]), the Kb is 6310 nM.

With `C#CCOc1ccccc1OCC(O)CNC(C)Cc1ccc(O)cc1` (stereo not shown) [Ex. 4, 3-[2-(4-hydroxyphenyl)-1-methylethylamino]-1-o-propargyloxyphenoxy-propanol-2], in the assay on β-receptors, the “Intrinsic activity (increase in heart rate relative to basal)” value was “+22 beats/min”, the “Block of isopren. ED50 HR” value stood at 0.12 mg/kg and the “Block of isopren. ED50 PR” value came out at 0.35 mg/kg. The Kb at α-receptor (setting [1]) is 251 nM.

For the compound `CCc1ccccc1OCC(O)CNC(C)(C)Cc1ccc(O)cc1` (stereo not shown) [Ex. 6, 3-[2-(4-hydroxyphenyl)-1,1-dimethylethylamino]-1-o-ethylphenoxy-propanol-2], in the assay with β-receptors, the “Intrinsic activity (increase in heart rate relative to basal)” value was “+38 beats/min”, the “Block of isopren. ED50 HR” value stood at 0.04 mg/kg and the “Block of isopren. ED50 PR” value came to 0.04 mg/kg. Besides, on α-receptor (setting [1]), the Kb was 158 nM.

Take `CC(C)NCC(O)COc1cccc2ccccc12` (stereo not shown) [Propranolol, propranolol, reference compound]: in the assay on β-receptors, the “Intrinsic activity (increase in heart rate relative to basal)” value is listed as 0 beats/min, the “Block of isopren. ED50 HR” value is listed as 0.1 mg/kg and the “Block of isopren. ED50 PR” value is 0.1 mg/kg.

For `Cc1ccccc1OCC(O)CNC(C)Cc1ccc(O)cc1` (stereo not shown) [Ex. 1, 3-[2-(4-hydroxyphenyl)-1-methylethylamino]-1-o-methylphenoxy-propanol-2], in the assay on β-receptors, the “Intrinsic activity (increase in heart rate relative to basal)” value was “+16 beats/min”, the “Block of isopren. ED50 HR” value was determined as 0.07 mg/kg and the “Block of isopren. ED50 PR” value turned out to be 0.07 mg/kg. Moreover, the Kb on α-receptor (setting [1]) was 158 nM.
